Measured values as given in patent US10604524B2, “Pyrropyrimidine compounds as MNKs inhibitors” (LIFEARC, priority 2015, dated 2020).

What was measured:
MAPK8 = MAPK8 (Homo sapiens, UniProt P45983); test: Kinase selectivity screen; conditions: read-out: % Inhibition MAPK8
PRKACA = PRKACA (Homo sapiens, UniProt P17612); test: Kinase selectivity screen; conditions: read-out: % Inhibition PRKACA
ABL2 = ABL2 (Homo sapiens, UniProt P42684); test: Kinase selectivity screen; conditions: read-out: % Inhibition ABL2
NEK2 = NEK2 (Homo sapiens, UniProt P51955); test: Kinase selectivity screen; conditions: read-out: % Inhibition NEK2
GSK3B = GSK3B (Homo sapiens, UniProt P49841); test: Kinase selectivity screen; conditions: read-out: % Inhibition GSK3B
Chain of GSK3B (P49841 whole entry, species assumed): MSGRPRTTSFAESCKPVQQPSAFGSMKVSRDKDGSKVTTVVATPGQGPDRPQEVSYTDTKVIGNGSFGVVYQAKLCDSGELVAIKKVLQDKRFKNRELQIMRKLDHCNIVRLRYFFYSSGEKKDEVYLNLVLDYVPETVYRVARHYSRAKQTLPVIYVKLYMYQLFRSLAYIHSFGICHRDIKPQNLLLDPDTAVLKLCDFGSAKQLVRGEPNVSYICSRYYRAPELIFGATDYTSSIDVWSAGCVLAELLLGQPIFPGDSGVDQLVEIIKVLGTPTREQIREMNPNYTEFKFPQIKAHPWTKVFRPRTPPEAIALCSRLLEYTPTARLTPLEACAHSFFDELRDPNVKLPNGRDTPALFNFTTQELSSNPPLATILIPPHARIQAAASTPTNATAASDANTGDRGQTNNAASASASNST

BLK = BLK (Homo sapiens, UniProt P51451); test: Kinase selectivity screen; conditions: read-out: % Inhibition BLK
MAP2K7 = MAP2K7 (Homo sapiens, UniProt O14733); test: Kinase selectivity screen; conditions: read-out: % Inhibition MAP2K7
LYN = LYN (Homo sapiens, UniProt P07948); test: Kinase selectivity screen; conditions: read-out: % Inhibition LYN
ABL1 = ABL1 (Homo sapiens, UniProt P00519); test: Kinase selectivity screen; conditions: read-out: % Inhibition ABL1
MKNK2 = MKNK2 (Homo sapiens, UniProt Q9HBH9); test: Kinase selectivity screen; format: biochemical; conditions: 1 μM compound
CDK7/CCNH/MNAT1 = CDK7/CCNH/MNAT1 (Homo sapiens, UniProt P50613); test: Kinase selectivity screen; conditions: read-out: % Inhibition CDK7/CCNH/MNAT1
BTK = BTK (Homo sapiens, UniProt Q06187); test: Kinase selectivity screen; conditions: read-out: % Inhibition BTK
Chain of BTK (Q06187 whole entry, species assumed): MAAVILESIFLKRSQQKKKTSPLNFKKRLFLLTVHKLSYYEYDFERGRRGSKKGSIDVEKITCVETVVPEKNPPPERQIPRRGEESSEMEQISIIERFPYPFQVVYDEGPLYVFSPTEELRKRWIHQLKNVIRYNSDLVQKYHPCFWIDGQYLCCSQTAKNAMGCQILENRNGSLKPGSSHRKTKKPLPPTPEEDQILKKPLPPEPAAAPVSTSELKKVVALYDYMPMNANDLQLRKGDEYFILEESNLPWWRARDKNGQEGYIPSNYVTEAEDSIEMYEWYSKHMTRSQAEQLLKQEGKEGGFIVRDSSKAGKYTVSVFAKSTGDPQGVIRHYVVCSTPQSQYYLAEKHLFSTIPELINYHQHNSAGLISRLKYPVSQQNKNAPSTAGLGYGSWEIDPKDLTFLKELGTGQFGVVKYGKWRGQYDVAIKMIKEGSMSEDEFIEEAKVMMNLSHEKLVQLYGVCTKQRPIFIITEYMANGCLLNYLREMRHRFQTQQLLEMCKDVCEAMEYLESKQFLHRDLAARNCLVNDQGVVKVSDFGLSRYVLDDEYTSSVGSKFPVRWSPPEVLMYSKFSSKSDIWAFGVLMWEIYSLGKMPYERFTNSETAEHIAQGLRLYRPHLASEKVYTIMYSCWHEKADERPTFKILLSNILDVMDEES

PIK3C2G = PIK3C2G (Homo sapiens, UniProt O75747); test: Kinase selectivity screen; conditions: read-out: % Inhibition PIK3C2G
NUAK1 = NUAK1 (Homo sapiens, UniProt O60285); test: Kinase selectivity screen; conditions: read-out: % Inhibition NUAK1
JAK2 = JAK2 (Homo sapiens, UniProt O60674); test: Kinase selectivity screen; conditions: read-out: % Inhibition JAK2
BMX = BMX (Homo sapiens, UniProt P51813); test: Kinase selectivity screen; conditions: read-out: % Inhibition BMX
PTK6 = PTK6 (Homo sapiens, UniProt Q13882); test: Kinase selectivity screen; conditions: read-out: % Inhibition PTK6
EPHB1 = EPHB1 (Homo sapiens, UniProt P54762); test: Kinase selectivity screen; conditions: read-out: % Inhibition EPHB1
STK11 = STK11 (Homo sapiens, UniProt Q15831); test: Kinase selectivity screen; conditions: read-out: % Inhibition STK11
Chain of STK11 (Q15831 whole entry, species assumed): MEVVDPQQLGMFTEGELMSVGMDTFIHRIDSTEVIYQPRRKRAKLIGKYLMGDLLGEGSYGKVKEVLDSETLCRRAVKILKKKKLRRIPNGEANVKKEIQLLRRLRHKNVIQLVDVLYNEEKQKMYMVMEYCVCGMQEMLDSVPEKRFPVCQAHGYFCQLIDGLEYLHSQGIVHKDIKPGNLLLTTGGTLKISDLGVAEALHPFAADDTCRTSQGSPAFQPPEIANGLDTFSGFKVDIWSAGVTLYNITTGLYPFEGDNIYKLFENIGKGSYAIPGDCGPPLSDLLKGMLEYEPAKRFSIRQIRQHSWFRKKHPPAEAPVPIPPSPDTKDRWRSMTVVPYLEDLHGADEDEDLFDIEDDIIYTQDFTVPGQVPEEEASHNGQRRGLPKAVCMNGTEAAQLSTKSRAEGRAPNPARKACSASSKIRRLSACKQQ
Chain of STK11 (Q7RTN6 whole entry partner, species assumed): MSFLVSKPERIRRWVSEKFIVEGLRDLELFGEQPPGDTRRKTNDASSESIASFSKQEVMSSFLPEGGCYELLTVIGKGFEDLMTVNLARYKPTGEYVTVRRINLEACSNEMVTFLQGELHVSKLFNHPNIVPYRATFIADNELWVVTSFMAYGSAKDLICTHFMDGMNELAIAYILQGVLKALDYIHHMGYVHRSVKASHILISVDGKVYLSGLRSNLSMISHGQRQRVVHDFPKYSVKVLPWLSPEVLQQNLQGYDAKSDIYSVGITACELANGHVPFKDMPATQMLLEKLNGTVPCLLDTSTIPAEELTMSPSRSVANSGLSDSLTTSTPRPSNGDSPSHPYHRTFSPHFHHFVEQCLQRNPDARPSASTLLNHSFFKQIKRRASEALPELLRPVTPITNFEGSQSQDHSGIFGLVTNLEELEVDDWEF
Chain of STK11 (Q9Y376 whole entry partner, species assumed): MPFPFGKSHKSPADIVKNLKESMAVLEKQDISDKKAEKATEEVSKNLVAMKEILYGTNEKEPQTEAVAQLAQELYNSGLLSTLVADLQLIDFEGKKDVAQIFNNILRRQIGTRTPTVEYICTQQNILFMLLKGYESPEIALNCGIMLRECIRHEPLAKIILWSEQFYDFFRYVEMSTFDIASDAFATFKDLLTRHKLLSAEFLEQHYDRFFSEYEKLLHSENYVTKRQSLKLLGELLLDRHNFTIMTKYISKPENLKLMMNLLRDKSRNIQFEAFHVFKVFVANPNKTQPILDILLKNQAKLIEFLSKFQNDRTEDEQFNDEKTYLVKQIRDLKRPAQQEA

TYRO3 = TYRO3 (Homo sapiens, UniProt Q06418); test: Kinase selectivity screen; conditions: read-out: % Inhibition TYRO3
FES = FES (Homo sapiens, UniProt P07332); test: Kinase selectivity screen; conditions: read-out: % Inhibition FES
PIP5K1A = PIP5K1A (Homo sapiens, UniProt Q99755); test: Kinase selectivity screen; conditions: read-out: % Inhibition PIP5K1A
SRC = SRC (Homo sapiens, UniProt P12931); test: Kinase selectivity screen; conditions: read-out: % Inhibition SRC
SRPK1 = SRPK1 (Homo sapiens, UniProt Q96SB4); test: Kinase selectivity screen; conditions: read-out: % Inhibition SRPK1
PDPK1 = PDPK1 (Homo sapiens, UniProt O15530); test: Kinase selectivity screen; conditions: read-out: % Inhibition PDPK1
RET = RET (Homo sapiens, UniProt P07949); test: Kinase selectivity screen; conditions: read-out: % Inhibition RET
Chain of RET (P07949 29-1114, species assumed): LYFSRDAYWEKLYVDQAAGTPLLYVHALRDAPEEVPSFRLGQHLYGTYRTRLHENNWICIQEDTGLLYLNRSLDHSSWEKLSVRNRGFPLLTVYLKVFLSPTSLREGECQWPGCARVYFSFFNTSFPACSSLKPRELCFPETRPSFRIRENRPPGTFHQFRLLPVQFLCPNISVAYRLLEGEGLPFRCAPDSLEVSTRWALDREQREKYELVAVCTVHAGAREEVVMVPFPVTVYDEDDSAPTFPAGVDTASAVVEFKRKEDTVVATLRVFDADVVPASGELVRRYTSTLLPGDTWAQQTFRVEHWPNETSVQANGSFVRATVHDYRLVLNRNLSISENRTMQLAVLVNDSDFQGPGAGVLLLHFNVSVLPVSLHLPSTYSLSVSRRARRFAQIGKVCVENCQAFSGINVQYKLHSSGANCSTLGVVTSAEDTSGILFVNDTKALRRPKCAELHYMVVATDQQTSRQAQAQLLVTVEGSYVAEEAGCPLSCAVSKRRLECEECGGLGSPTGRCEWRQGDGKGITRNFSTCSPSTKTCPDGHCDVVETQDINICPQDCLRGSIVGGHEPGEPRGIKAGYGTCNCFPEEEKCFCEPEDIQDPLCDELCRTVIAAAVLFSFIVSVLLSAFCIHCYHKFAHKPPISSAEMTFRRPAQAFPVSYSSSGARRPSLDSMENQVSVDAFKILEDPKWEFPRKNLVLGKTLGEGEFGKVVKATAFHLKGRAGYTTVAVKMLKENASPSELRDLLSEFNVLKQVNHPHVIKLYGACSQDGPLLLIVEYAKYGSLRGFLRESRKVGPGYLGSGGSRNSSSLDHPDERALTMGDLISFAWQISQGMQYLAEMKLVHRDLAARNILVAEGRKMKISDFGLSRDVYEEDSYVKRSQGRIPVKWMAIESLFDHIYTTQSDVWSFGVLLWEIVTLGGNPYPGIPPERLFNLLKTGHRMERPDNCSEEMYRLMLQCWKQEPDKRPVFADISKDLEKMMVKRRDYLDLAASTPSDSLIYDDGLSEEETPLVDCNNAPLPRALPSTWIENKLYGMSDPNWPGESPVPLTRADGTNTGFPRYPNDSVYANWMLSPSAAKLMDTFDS

PRAK = PRAK (Homo sapiens, UniProt Q8IW41); test: Kinase selectivity screen; conditions: read-out: % Inhibition PRAK
IKBKB = IKBKB (Homo sapiens, UniProt O14920); test: Kinase selectivity screen; conditions: read-out: % Inhibition IKBKB
PLK1 = PLK1 (Homo sapiens, UniProt P53350); test: Kinase selectivity screen; conditions: read-out: % Inhibition PLK1
Full-length human MNK2 = Full-length human MNK2 (Homo sapiens, UniProt Q9HBH9, T379D); test: MNK2 biochemical IC50 assay (Caliper mobility shift)
ROS1 = ROS1 (Homo sapiens, UniProt P08922); test: Kinase selectivity screen; conditions: read-out: % Inhibition ROS1
ACVR1B = ACVR1B (Homo sapiens, UniProt P36896); test: Kinase selectivity screen; conditions: read-out: % Inhibition ACVR1B
RPS6KB1 = RPS6KB1 (Homo sapiens, UniProt P23443); test: Kinase selectivity screen; conditions: read-out: % Inhibition RPS6KB1
PIK3CB = PIK3CB (Homo sapiens, UniProt P42338); test: Kinase selectivity screen; conditions: read-out: % Inhibition PIK3CB
INSR = INSR (Homo sapiens, UniProt P06213); test: Kinase selectivity screen; conditions: read-out: % Inhibition INSR
Chain of INSR (P06213 28-1382, species assumed): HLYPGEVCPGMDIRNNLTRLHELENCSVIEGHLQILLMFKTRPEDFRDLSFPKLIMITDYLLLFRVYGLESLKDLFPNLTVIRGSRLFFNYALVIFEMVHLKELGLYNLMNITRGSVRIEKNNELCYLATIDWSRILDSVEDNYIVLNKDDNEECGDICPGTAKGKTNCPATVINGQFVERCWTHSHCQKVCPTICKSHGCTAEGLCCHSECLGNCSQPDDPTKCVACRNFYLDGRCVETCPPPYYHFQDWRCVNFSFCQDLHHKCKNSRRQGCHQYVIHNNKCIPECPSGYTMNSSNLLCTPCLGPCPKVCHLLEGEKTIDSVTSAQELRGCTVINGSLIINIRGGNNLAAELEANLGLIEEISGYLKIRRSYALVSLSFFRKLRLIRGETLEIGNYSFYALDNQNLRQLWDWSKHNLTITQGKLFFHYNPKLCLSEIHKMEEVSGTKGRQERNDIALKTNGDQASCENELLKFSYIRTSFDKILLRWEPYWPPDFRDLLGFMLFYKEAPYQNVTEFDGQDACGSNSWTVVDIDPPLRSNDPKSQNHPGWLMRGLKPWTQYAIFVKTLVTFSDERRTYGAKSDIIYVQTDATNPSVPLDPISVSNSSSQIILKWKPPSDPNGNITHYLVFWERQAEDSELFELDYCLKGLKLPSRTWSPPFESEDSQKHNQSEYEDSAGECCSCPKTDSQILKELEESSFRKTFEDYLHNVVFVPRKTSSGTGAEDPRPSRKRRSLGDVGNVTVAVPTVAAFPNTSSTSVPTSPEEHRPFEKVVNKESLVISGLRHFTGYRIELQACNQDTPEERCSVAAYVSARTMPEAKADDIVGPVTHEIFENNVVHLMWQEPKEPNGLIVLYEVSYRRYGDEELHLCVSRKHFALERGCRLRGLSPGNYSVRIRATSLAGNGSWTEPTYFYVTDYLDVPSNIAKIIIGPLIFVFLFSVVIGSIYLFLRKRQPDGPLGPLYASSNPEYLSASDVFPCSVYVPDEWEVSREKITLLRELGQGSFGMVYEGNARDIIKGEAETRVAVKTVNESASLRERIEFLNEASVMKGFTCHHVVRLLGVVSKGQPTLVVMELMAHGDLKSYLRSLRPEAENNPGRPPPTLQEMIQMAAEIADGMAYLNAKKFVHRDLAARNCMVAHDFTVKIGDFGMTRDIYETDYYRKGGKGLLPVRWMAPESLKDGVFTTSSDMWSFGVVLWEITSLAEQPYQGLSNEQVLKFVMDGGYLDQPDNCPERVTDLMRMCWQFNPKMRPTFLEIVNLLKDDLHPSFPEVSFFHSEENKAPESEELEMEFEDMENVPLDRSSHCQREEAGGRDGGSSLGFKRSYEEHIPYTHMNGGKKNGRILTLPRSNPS

SMILES: CC(C)Oc1cc(F)ccc1Nc1ncnc2cc(C(=O)NCCCN(C)C)n(C)c12 [Example 40, N-[3-(dimethylamino)propyl]-4-{[4-fluoro-2-(propan-2-yloxy)phenyl]amino}-5-methyl-5H-pyrrolo[3,2-d]pyrimidine-6-carboxamide]
- inhibition at 1 µM (MAPK8): 0%
- inhibition at 1 µM (PRKACA): 0%
- inhibition at 1 µM (ABL2): 0%
- inhibition at 1 µM (NEK2): 0%
- inhibition at 1 µM (GSK3B): 0%
- inhibition at 1 µM (BLK): 4%
- inhibition at 1 µM (MAP2K7): 0%
- inhibition at 1 µM (LYN): 11%
- inhibition at 1 µM (ABL1): 0%
- inhibition at 1 µM (MKNK2): 84%
- inhibition at 1 µM (CDK7/CCNH/MNAT1): 5%
- inhibition at 1 µM (BTK): 0%
- inhibition at 1 µM (PIK3C2G): 4%
- inhibition at 1 µM (NUAK1): 0%
- inhibition at 1 µM (JAK2): 0%
- inhibition at 1 µM (BMX): 0%
- inhibition at 1 µM (PTK6): 0%
- inhibition at 1 µM (EPHB1): 0%
- inhibition at 1 µM (STK11): 0%
- inhibition at 1 µM (TYRO3): 0%
- inhibition at 1 µM (FES): 5%
- inhibition at 1 µM (PIP5K1A): 2%
- inhibition at 1 µM (SRC): 0%
- inhibition at 1 µM (SRPK1): 0%
- inhibition at 1 µM (PDPK1): 0%
- inhibition at 1 µM (RET): 1%
- inhibition at 1 µM (PRAK): 0%
- inhibition at 1 µM (IKBKB): 0%
- inhibition at 1 µM (PLK1): 0%
- IC50 (Full-length human MNK2): 39.8 nM
- inhibition at 1 µM (ROS1): 0%
- inhibition at 1 µM (ACVR1B): 0%
- inhibition at 1 µM (RPS6KB1): 0%
- inhibition at 1 µM (PIK3CB): 1%
- inhibition at 1 µM (INSR): 0%
